According to ChEMBL document CHEMBL4725259 (Bioorg Med Chem, 2020):
Calls of active or inactive are those of the source. No cut-off for these calls is given here.

Assays:
[1] = molecular target: T1, C-C chemokine receptor type 8 (Homo sapiens, UniProt P51685); test: Antagonist activity at human CCR8 expressed in CHO-K1 cells at 20 uM by PathHunter beta-arrestin assay relative to control; format: cell-based; details: filed as antagonist
Vasopressin V2 receptor [2] = molecular target: T2, Vasopressin V2 receptor (Homo sapiens, UniProt P30518); test: Antagonist activity at human AVPR2 at 20 uM by PathHunter beta-arrestin assay relative to control; details: filed as antagonist
Vasopressin V2 receptor [3] = molecular target: T2, Vasopressin V2 receptor; test: Agonist activity at human AVPR2 at 20 uM by PathHunter beta-arrestin assay relative to control
[4] = molecular target: T3, C-C chemokine receptor type 3 (Homo sapiens) (UniProt P51677); test: Agonist activity at human CCR3 expressed in CHO-K1 cells at 20 uM by PathHunter beta-arrestin assay relative to control; format: cell-based
T3 sequence (whole entry): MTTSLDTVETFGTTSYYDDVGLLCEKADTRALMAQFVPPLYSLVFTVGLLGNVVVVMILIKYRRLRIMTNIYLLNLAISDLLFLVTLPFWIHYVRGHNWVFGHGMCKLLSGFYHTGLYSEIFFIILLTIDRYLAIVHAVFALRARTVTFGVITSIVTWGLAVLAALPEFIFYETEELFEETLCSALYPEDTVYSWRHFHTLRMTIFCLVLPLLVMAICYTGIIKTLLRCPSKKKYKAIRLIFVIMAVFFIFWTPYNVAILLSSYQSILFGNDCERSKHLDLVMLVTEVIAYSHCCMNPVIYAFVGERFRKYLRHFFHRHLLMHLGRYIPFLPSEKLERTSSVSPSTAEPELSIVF

[5] = molecular target: T1, C-C chemokine receptor type 8; test: Agonist activity at human CCR8 expressed in CHO-K1 cells at 20 uM by PathHunter beta-arrestin assay relative to control; format: cell-based
[6] = molecular target: T3, C-C chemokine receptor type 3 (Homo sapiens); test: Antagonist activity at human CCR3 expressed in CHO-K1 cells at 20 uM by PathHunter beta-arrestin assay relative to control; format: cell-based; details: filed as antagonist
[7] = molecular target: C-X-C chemokine receptor type 4 (Homo sapiens, UniProt P61073); test: Antagonist activity at human CXCR4 expressed in mouse C2C12 cells at 20 uM by PathHunter beta-arrestin assay relative to control; format: cell-based; details: filed as antagonist
[8] = molecular target: T4, Follicle-stimulating hormone receptor (Homo sapiens) (UniProt P23945); test: Antagonist activity at human FSHR expressed in CHO-K1 cells at 20 uM by PathHunter beta-arrestin assay relative to control; format: cell-based; details: filed as antagonist
T4 sequence (whole entry): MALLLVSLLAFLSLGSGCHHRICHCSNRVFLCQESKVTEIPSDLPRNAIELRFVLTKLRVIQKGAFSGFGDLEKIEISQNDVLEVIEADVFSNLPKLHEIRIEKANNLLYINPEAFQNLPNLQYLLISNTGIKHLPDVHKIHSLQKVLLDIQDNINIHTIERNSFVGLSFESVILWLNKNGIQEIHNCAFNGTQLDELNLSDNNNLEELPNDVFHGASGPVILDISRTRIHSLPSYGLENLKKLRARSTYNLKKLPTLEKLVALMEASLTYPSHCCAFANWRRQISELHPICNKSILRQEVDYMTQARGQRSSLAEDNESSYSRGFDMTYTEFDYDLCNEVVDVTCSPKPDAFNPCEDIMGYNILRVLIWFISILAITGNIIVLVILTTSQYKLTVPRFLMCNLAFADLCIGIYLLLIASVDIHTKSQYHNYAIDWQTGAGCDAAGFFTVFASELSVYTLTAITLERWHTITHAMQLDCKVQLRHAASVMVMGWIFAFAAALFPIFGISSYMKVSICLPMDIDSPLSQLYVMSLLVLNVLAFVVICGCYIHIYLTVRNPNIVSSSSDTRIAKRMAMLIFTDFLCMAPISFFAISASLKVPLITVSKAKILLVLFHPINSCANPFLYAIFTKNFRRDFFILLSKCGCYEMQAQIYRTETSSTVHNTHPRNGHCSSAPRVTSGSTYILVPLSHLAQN

[9] = molecular target: D(2) dopamine receptor (Homo sapiens) (UniProt P14416); test: Agonist activity at human DRD2L expressed in CHO-K1 cells at 20 uM by PathHunter beta-arrestin assay relative to control; format: cell-based
[10] = molecular target: T5, Oxytocin receptor (Homo sapiens) (UniProt P30559); test: Agonist activity at human OXTR expressed in CHO-K1 cells at 20 uM by PathHunter beta-arrestin assay relative to control; format: cell-based
T5 sequence (whole entry): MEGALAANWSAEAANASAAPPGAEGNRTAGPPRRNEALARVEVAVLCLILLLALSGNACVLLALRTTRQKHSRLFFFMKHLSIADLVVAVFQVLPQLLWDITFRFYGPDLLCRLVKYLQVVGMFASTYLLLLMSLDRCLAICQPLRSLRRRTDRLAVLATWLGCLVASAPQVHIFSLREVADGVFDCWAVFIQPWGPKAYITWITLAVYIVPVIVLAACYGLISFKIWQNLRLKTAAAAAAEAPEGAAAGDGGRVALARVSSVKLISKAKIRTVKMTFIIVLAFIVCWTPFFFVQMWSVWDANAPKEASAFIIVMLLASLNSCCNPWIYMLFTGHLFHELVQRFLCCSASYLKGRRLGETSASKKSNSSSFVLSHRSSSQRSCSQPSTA

U2OS [11] = test: Agonist activity at NPSR1B in human U2OS cells at 20 uM by PathHunter beta-arrestin assay relative to control; format: cell-based
[12] = molecular target: T6, Prolactin-releasing peptide receptor (Homo sapiens) (UniProt P49683); test: Agonist activity at human PRLHR expressed in CHO-K1 cells at 20 uM by PathHunter beta-arrestin assay relative to control; format: cell-based
T6 sequence (whole entry): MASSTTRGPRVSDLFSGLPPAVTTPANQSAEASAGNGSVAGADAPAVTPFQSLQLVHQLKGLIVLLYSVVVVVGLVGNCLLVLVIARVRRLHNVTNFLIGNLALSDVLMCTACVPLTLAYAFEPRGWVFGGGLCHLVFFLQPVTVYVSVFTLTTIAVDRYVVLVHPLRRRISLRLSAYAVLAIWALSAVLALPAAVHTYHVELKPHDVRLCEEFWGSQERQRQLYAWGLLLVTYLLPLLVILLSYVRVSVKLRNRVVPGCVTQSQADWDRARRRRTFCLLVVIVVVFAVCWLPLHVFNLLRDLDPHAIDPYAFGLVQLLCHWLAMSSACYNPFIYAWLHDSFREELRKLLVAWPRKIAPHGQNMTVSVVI

U2OS [13] = test: Antagonist activity at NPSR1B in human U2OS cells at 20 uM by PathHunter beta-arrestin assay relative to control; format: cell-based; details: filed as antagonist

T2 sequence (P30518 whole entry): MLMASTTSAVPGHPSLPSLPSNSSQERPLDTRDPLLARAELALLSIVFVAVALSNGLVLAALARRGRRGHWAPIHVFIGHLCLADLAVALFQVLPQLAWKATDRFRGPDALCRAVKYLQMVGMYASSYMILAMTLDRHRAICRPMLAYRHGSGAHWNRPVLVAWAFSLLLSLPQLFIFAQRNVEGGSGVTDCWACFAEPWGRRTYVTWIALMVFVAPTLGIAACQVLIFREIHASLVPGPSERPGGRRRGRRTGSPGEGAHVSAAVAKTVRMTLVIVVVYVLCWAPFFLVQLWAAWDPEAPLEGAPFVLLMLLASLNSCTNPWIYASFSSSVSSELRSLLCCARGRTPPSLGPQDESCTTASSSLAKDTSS
T1 sequence (P51685 whole entry): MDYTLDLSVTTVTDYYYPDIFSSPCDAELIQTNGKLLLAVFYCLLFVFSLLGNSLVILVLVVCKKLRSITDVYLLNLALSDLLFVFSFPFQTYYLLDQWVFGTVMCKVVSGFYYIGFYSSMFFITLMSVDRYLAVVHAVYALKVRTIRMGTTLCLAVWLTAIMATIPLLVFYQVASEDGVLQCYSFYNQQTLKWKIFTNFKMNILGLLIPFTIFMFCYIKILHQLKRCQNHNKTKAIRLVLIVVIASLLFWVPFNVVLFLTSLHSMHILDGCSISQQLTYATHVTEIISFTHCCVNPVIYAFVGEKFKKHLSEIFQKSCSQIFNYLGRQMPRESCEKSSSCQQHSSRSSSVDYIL
Sequence of C-X-C chemokine receptor type 4 (P61073 whole entry): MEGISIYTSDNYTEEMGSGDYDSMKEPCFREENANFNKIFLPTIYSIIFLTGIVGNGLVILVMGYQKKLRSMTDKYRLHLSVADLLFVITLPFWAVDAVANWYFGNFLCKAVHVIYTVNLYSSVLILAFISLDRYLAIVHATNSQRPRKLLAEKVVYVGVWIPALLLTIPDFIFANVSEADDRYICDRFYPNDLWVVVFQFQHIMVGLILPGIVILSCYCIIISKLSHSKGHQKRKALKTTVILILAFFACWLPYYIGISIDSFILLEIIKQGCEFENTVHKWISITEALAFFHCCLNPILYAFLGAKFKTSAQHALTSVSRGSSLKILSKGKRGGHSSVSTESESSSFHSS
Sequence of D(2) dopamine receptor (Homo sapiens) (P14416 whole entry): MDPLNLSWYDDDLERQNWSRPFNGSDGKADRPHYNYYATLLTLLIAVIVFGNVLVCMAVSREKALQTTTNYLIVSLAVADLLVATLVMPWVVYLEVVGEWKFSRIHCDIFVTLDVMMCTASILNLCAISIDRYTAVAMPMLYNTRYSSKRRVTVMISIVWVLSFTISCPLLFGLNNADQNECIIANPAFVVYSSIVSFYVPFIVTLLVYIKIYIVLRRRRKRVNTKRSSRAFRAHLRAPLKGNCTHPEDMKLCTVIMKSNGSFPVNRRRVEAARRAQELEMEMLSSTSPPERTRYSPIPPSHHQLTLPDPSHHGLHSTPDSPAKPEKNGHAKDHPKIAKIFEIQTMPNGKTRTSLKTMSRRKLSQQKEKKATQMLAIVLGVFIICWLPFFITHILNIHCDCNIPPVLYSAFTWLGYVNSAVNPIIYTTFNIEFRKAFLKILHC

SMILES	inhibition [1]	inhibition (Vasopressin V2 receptor [2])	Activity (Vasopressin V2 receptor [3])	Activity [4]	Activity [5]	inhibition [6]	inhibition [7]	inhibition [8]	Activity [9]	Activity [10]	Activity (U2OS [11])	Activity [12]	inhibition (U2OS [13])
COC(=O)[C@@H]1[C@H]2C[C@@H]3N(CC[C@@]34C(=O)N(Cc3cccc(OC)c3)c3ccccc34)C[C@@H]2CC[C@@H]1OCc1cccc(OC)c1	88%	83%	inactive	inactive	inactive	89%	39%	56%	inactive	inactive	inactive	inactive	48%
COC(=O)[C@@H]1[C@H]2C[C@@H](c3[nH]c4ccccc4c3CCn3cc(-c4cccc(Cl)c4)nn3)N(C#N)C[C@@H]2CC[C@@H]1O	90%	7%	inactive	inactive	inactive	112%	125%	51%	inactive	inactive	inactive	inactive	62%
